Results taken from ChEMBL document CHEMBL1139215, “Discovery of aminofurazan-azabenzimidazoles as inhibitors of Rho-kinase with high kinase selectivity and antihypertensive activity” (J Med Chem, 2007).
The source made the active and inactive calls. No cut-off for these calls is given here.

Tests used:
Homo sapiens [1] = species: Homo sapiens; assay: Selectivity for ROCK1 over GSK3-beta
Homo sapiens [2] = species: Homo sapiens; assay: Selectivity for ROCK1 over p70S6K
[3] = biological target: Rho-associated protein kinase 1 (Homo sapiens, UniProt Q13464); assay: Inhibition of human ROCK1 in Sf9 cells; type: cell-based
Homo sapiens [4] = species: Homo sapiens; assay: Selectivity for ROCK1 over RSK1
Homo sapiens [5] = species: Homo sapiens; assay: Selectivity for ROCK1 over CDK2
Homo sapiens [6] = species: Homo sapiens; assay: Selectivity for ROCK1 over MSK1
Rattus norvegicus [7] = assay: Reduction of mean arterial blood pressure in spontaneous hypertensive rat at 3 mg/kg, po; type: functional, organism-based; set-up: dose 3 mg/kg
Rattus norvegicus [8] = assay: Reduction of mean arterial blood pressure in spontaneous hypertensive rat at 1 mg/kg, po; type: functional, organism-based; set-up: dose 1 mg/kg
Aorta = assay: Relaxation of phenylephrine contracted Sprague-Dawley rat aortic rings; type: functional, tissue-based
[9] = Oral bioavailability in Sprague-Dawley rat at 3.3 mg/kg, po; type: ADME, organism-based; details: in vivo
[10] = Volume of distribution in Sprague-Dawley rat at 1.6 mg/kg, iv; type: ADME, organism-based; set-up: dose 1.6 mg/kg, route intravenous; details: in vivo, read-out: Vdss
[11] = Clearance in Sprague-Dawley rat at 1.6 mg/kg, iv; type: ADME, organism-based; set-up: dose 1.6 mg/kg, route intravenous; details: in vivo
[12] = Half life in Sprague-Dawley rat at 1.6 mg/kg, iv; type: ADME, organism-based; set-up: dose 1.6 mg/kg, route intravenous; details: in vivo
[13] = Plasma concentration in spontaneously hypertensive rat at 3 mg/kg, po after 0.5 hrs; type: ADME, organism-based; set-up: dose 3 mg/kg, route oral
[14] = Plasma concentration in spontaneously hypertensive rat at 3 mg/kg, po after 8 hrs; type: ADME, organism-based; set-up: dose 3 mg/kg, route oral
[15] = Plasma concentration in spontaneously hypertensive rat at 3 mg/kg, po after 4 hrs; type: ADME, organism-based; set-up: dose 3 mg/kg, route oral
[16] = Plasma concentration in spontaneously hypertensive rat at 3 mg/kg, po after 1 hr; type: ADME, organism-based; set-up: dose 3 mg/kg, route oral
[17] = Cmax in Sprague-Dawley rat at 1.6 mg/kg, iv; type: ADME, organism-based; set-up: dose 1.6 mg/kg, route intravenous; details: in vivo
[18] = Plasma concentration in spontaneously hypertensive rat at 3 mg/kg, po after 2 hrs; type: ADME, organism-based; set-up: dose 3 mg/kg, route oral
[19] = Cmax in Sprague-Dawley rat at 3.3 mg/kg, po; type: ADME, organism-based; set-up: dose 3.3 mg/kg, route oral; details: in vivo
Rattus norvegicus [20] = assay: Reduction of mean arterial blood pressure in spontaneous hypertensive rat at 0.3 mg/kg, po; type: functional, organism-based; set-up: dose 0.3 mg/kg
[21] = Half life in Sprague-Dawley rat at 1.1 mg/kg, iv; type: ADME, organism-based; set-up: dose 1.1 mg/kg, route intravenous; details: in vivo
[22] = Volume of distribution in Sprague-Dawley rat at 1.1 mg/kg, iv; type: ADME, organism-based; set-up: dose 1.1 mg/kg, route intravenous; details: in vivo, read-out: Vdss
[23] = Clearance in Sprague-Dawley rat at 1.1 mg/kg, iv; type: ADME, organism-based; set-up: dose 1.1 mg/kg, route intravenous; details: in vivo
[24] = Cmax in Sprague-Dawley rat at 1.1 mg/kg, iv; type: ADME, organism-based; set-up: dose 1.1 mg/kg, route intravenous; details: in vivo
[25] = Oral bioavailability in Sprague-Dawley rat at 2.2 mg/kg, po; type: ADME, organism-based; details: in vivo
[26] = Cmax in Sprague-Dawley rat at 2.2 mg/kg, po; type: ADME, organism-based; set-up: dose 2.2 mg/kg, route oral; details: in vivo
[27] = Half life in Sprague-Dawley rat at 1 mg/kg, iv; type: ADME, organism-based; set-up: dose 1 mg/kg, route intravenous; details: in vivo
[28] = Clearance in Sprague-Dawley rat at 1 mg/kg, iv; type: ADME, organism-based; set-up: dose 1 mg/kg, route intravenous; details: in vivo
[29] = Cmax in Sprague-Dawley rat at 1 mg/kg, iv; type: ADME, organism-based; set-up: dose 1 mg/kg, route intravenous; details: in vivo
[30] = Volume of distribution in Sprague-Dawley rat at 1 mg/kg, iv; type: ADME, organism-based; set-up: dose 1 mg/kg, route intravenous; details: in vivo, read-out: Vdss
[31] = Oral bioavailability in Sprague-Dawley rat at 2.1 mg/kg, po; type: ADME, organism-based; details: in vivo
[32] = Cmax in Sprague-Dawley rat at 2.1 mg/kg, po; type: ADME, organism-based; set-up: dose 2.1 mg/kg, route oral; details: in vivo
[33] = Half life in Sprague-Dawley rat at 2.1 mg/kg, iv; type: ADME, organism-based; set-up: dose 2.1 mg/kg, route intravenous; details: in vivo
[34] = Volume of distribution in Sprague-Dawley rat at 2.1 mg/kg, iv; type: ADME, organism-based; set-up: dose 2.1 mg/kg, route intravenous; details: in vivo, read-out: Vdss
[35] = Cmax in Sprague-Dawley rat at 2.1 mg/kg, iv; type: ADME, organism-based; set-up: dose 2.1 mg/kg, route intravenous; details: in vivo
[36] = Clearance in Sprague-Dawley rat at 2.1 mg/kg, iv; type: ADME, organism-based; set-up: dose 2.1 mg/kg, route intravenous; details: in vivo

Rho-associated protein kinase 1, sequence (Q13464 whole entry): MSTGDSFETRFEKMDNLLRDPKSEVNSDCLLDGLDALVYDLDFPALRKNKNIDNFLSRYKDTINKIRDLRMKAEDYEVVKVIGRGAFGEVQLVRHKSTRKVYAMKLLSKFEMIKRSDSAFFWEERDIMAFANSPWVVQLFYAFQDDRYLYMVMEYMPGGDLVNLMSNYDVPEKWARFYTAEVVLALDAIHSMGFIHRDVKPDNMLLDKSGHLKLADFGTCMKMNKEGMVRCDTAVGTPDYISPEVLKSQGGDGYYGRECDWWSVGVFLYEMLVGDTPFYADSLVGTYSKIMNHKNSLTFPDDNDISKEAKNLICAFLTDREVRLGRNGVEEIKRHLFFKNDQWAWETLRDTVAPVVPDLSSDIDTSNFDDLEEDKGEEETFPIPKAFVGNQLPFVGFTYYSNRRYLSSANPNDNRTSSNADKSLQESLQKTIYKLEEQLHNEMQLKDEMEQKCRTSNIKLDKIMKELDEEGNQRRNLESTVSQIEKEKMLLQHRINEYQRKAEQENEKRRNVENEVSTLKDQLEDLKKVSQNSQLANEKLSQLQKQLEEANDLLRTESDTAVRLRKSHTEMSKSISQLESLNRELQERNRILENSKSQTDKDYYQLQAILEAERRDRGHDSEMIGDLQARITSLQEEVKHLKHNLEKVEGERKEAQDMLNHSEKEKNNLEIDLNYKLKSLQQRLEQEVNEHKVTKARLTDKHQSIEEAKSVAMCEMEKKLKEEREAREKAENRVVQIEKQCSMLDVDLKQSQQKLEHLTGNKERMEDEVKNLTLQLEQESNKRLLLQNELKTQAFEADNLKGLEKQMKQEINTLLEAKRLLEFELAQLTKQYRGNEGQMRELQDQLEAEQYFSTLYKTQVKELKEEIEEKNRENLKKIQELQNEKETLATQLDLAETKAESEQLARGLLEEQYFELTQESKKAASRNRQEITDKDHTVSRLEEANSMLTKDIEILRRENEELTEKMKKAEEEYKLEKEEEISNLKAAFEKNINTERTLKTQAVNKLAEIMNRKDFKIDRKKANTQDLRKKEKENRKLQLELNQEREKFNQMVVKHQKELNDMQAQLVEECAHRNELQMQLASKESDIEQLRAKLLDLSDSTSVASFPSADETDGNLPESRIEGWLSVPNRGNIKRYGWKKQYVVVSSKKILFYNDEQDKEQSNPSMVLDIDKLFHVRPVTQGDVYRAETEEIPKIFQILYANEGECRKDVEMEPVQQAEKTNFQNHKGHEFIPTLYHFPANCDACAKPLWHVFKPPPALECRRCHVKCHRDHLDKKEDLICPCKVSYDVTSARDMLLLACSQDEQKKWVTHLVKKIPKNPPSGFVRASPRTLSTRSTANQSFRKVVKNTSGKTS

Row | SMILES | Selectivity ratio (Homo sapiens [1]) | Selectivity ratio (Homo sapiens [2]) | IC50 [3] [nM] | Selectivity ratio (Homo sapiens [4]) | Selectivity ratio (Homo sapiens [5]) | Selectivity ratio (Homo sapiens [6]) | IC50 (Aorta) [nM] | further results
1 | CCn1c(-c2nonc2N)nc2cnccc21 | 53 | 3.1 | 19 | 0.63 | 22 | 0.18 |  | 
2 | CCn1c(-c2nonc2N)nc2cnc(Oc3ccc(NC(C)=O)cc3)cc21 | > 160 | 9.2 | 90 | 12 | 110 | 9.7 |  | 
3 | CCn1c(-c2nonc2N)nc2cnc(Oc3cccc(S(C)(=O)=O)c3)cc21 | 150 | 0.7 | 33 | 2.7 |  | 3.9 |  | 
4 | CCn1c(-c2nonc2N)nc2cnc(Oc3ccccc3)cc21 | > 500 | 18 | 30 | 10 | > 130 | 1.5 |  | 

Further lines, with some results ahead:

Row | Selectivity ratio (Homo sapiens [1]) | Selectivity ratio (Homo sapiens [2]) | IC50 [3] [nM] | Selectivity ratio (Homo sapiens [4]) | Selectivity ratio (Homo sapiens [5]) | Selectivity ratio (Homo sapiens [6]) | IC50 (Aorta) [nM] | SMILES | further results
5 |  |  |  |  |  |  | 35 | CCn1c(-c2nonc2N)nc2cnc(Oc3cccc(NC(=O)c4ccc(OCCN5CCOCC5)cc4)c3)cc21 [GSK-269962A] | Activity (Rattus norvegicus [7]): Active; Activity (Rattus norvegicus [8]): Active; bioavailability [9]: 78%; Vd [10]: 1.3 L/kg; clearance [11]: 7.6 mL/min/kg; half-life [12]: 2.2 h; concentration at 0.5 h [13]: 280 ng/mL; concentration at 8 h [14]: 88 ng/mL; concentration at 4 h [15]: 150 ng/mL; concentration at 1 h [16]: 330 ng/mL; Cmax [17]: 1270 ng/mL; concentration at 2 h [18]: 290 ng/mL; Cmax [19]: 800 ng/mL; Activity (Rattus norvegicus [20]): Active
6 |  | > 10 | ≤ 1 | > 120 |  | > 35 | 102 | CCn1c(-c2nonc2N)nc2cnc(Oc3cccc(NC(=O)c4ccc(CN5CCOCC5)cc4)c3)cc21 | half-life [21]: 1.4 h; Vd [22]: 1.1 L/kg; clearance [23]: 10.7 mL/min/kg; Cmax [24]: 1100 ng/mL; bioavailability [25]: 64%; Cmax [26]: 684 ng/mL
7 |  | > 3 | ≤ 1 | > 80 |  | > 52 | 74 | CCn1c(-c2nonc2N)nc2cnc(Oc3cccc(NC(=O)c4ccc(CN(C)C)cc4)c3)cc21 | half-life [27]: 1.9 h; clearance [28]: 30 mL/min/kg; Cmax [29]: 630 ng/mL; Vd [30]: 2.4 L/kg; bioavailability [25]: 47%; Cmax [26]: 160 ng/mL
8 |  | > 10 | ≤ 1 | > 60 |  | > 26 | 59 | CCn1c(-c2nonc2N)nc2cnc(Oc3cccc(NC(=O)c4ccc(N5CCOCC5)cc4)c3)cc21 | bioavailability [31]: 23%; Cmax [32]: 890 ng/mL; half-life [33]: 0.9 h; Vd [34]: 0.57 L/kg; Cmax [35]: 1500 ng/mL; clearance [36]: 8.6 mL/min/kg
